Several values for one entry are separate records, joined by “and”; a condition that tells them apart may be missing. Equal entries are not always repeated.
Experiments:
[1] = test system: uptake of radiolabelled dopamine into freshly prepared synaptosomes from rat striatum; test: Inhibition of dopamine uptake in vitro by plasma from humans treated with drug (14C-dopamine, rat striatal synaptosomes); format: biochemical; conditions: plasma 3 h after 50 mg oral; for % Inhibition of dopamine uptake: hydrochloride monohydrate
Protocol: (5) Inhibition of dopamine uptake in vitro by plasma from humans treated with drug
The plasma was separated by centrifugation at 2900×g for 20 minutes at room temperature in a Heraeus Christ minicentrifuge and was stored at -20° C. prior to analysis. The samples were thawed in a water bath at 37° C. for 10-15 minutes prior to commencement of the in vitro dopamine uptake assay which was performed as described in (3) above except ^14 C-dopamine was used. The assay was performed twice on plasma from each volunteer.

[2] = test system: uptake of radiolabelled dopamine into rat striatal synaptosomes; test: Inhibition of dopamine uptake in vitro by plasma from drug treated rats (3H-dopamine, rat striatal synaptosomes); format: biochemical, rat (CD, Sprague-Dawley); conditions: for % Inhibition of dopamine uptake in Individual Rats: hydrochloride monohydrate; for % Inhibition of dopamine uptake, Mean (±SEM): mean of 4 rats
Protocol: (3) Inhibition of dopamine uptake in vitro by plasma from drug treated rats
To obtain the synaptosomes, untreated male CD rats (Sprague-Dawley 200-250 g; Charles River) were killed by cervical dislocation, the brains removed and the striata of two or three rats dissected out and placed in ice-cold saline. The pooled tissue was homogenised in 20 volumes of ice-cold 0.32M sucrose in a glass-teflon homogeniser with 0.35 mm clearance. The homogenate was spun at 1500×g for 10 minutes in a refrigerated (4° C.) Heraeus Christ minicentrifuge. The supernatant was transferred into a polypropylene sterilin tube and stored on ice for as short a time as possible prior to use in the radiolabelled dopamine uptake assay.
Control rats were orally administered distilled water. After one hour the rats were killed by CO2 inhalation overdose, the chest cavity opened and blood immediately removed from the heart and mixed with an anticoagulant solution.
The rat blood/anticoagulant mixture was spun at 5750×g for 20 minutes in a Heraeus Christ minicentrifuge at room temperature. The plasma was removed and kept at room temperature for as short a time as possible before analysis in the radiolabelled dopamine uptake assay. The fresh plasma samples from the rat study were initially maintained at 37° C. for 10-15 minutes before starting the assay. 300 μl of each plasma sample was added to six 5 ml polypropylene tubes already containing 50 μl of saline at room temperature. Four of these tubes were incubated at 37° C. to assess active radiolabelled dopamine uptake. The other two tubes were immediately cooled to c.3° C. and maintained at this temperature to account for passive radiolabelled dopamine uptake.
(a) Active uptake of radiolabelled dopamine
To each tube at 37° C. was added 100 μl of fresh striatal synaptosomes, prepared as above. These tubes were then agitated in the water bath at 37° C. for 5 minutes prior to the addition of 50 μl ice-cold ^3 H-dopamine solution (final concentration 1×10^-7 M) (Amersham International). The reaction was stopped after a further 5 minutes of agitation and incubation at 37° C. by removing the tubes from the water bath and immediately adding 4 ml of ice-cold saline. The contents of the tube were then rapidly filtered over Whatman glass fibre (GF/F) filters supported on a Millipore 1225 manifold linked to an Edwards 2-stage vacuum pump. The tubes were rinsed with 2×4 ml of ice-cold saline and this was also rapidly filtered. Finally, each manifold well was washed with 4 ml of ice-cold saline.
(b) Passive uptake of radiolabelled dopamine
To the two tubes maintained at c.3° C. was added 100 μl of fresh striatal synaptosomes followed by 50 μl of ice-cold ^3 H-dopamine solution (final concentration 1×10^-7 M). The "reaction" in these tubes was terminated by the addition of 4 ml ice-cold saline and the samples were then rapidly filtered and washed as described in (a) above.
All filters were placed into glass vials and 10 ml of Packard ES-299 scintillation fluid added. Filters were allowed to solubilise for at least 1 hour before the radioactivity accumulated was assayed by liquid scintillation counting.
(c) Calculation of percentage inhibition of ^3 H-dopamine uptake
The amount of passive uptake of ^3 H-dopamine at c.3° C. (measured in cpm) was subtracted from the amount of active ^3 H-dopamine uptake at 37° C. (measured in cpm) to derive net ^3 H-dopamine uptake. The resulting value was then expressed as a percentage (X) of the net ^3 H-dopamine uptake recorded for control plasma. The latter plasma samples were obtained from distilled water-treated control rats. The percentage inhibition value (X) was calculated using the following formula: [formula]
Mean [±1 standard error of the mean (SEM)] percentage inhibition was then determined for each dose.

[3] = plasma 1 h after 100 mg/kg oral

CC(C)CC(N(C)C)C1(c2ccc(Cl)cc2)CCC1.Cl.O (stereo not shown) [N,N-dimethyl-1-[1-(4-chlorophenyl)cyclobutyl]-3-methylbutylamine hydrochloride monohydrate]
% Inhibition of dopamine uptake, Mean ([1]; Volunteer 1, mean of two assays): 11.6%
% Inhibition of dopamine uptake, Mean ([1]; Volunteer 2, mean of two assays): 8.6%
% Inhibition of dopamine uptake, Mean ([1]; Volunteer 3, mean of two assays): 15.7%
% Inhibition of dopamine uptake ([1]; Volunteer 3, single assays (performed twice)): 13.4% and 17.9%
% Inhibition of dopamine uptake, Mean ([1]; Volunteer 4, mean of two assays): 17.9%
% Inhibition of dopamine uptake, Mean ([1]; Volunteer 5, mean of two assays): 15.7%
% Inhibition of dopamine uptake ([1]; Volunteer 5, single assays (performed twice)): 13.0% and 18.4%
% Inhibition of dopamine uptake, Mean ([1]; Volunteer 6, mean of two assays): 16.1%
mean (±SEM) % inhibition of 14C-dopamine uptake by plasma from the six drug-treated volunteers ([1]; mean of six volunteers): 14.2±1.4%
% Inhibition of dopamine uptake in Individual Rats ([2]; plasma 1 h after 10 mg/kg oral): 33% and 23% and 13% and 17%
% Inhibition of dopamine uptake, Mean (±SEM) ([2]; plasma 1 h after 10 mg/kg oral): 22.8 ± 5.5%
% Inhibition of dopamine uptake in Individual Rats ([2]; plasma 1 h after 30 mg/kg oral): 54% and 35% and 49% and 42%
% Inhibition of dopamine uptake, Mean (±SEM) ([2]; plasma 1 h after 30 mg/kg oral): 45.0 ± 4.1%
% Inhibition of dopamine uptake in Individual Rats [2, 3]: 53% and 59% and 67% and 55%
% Inhibition of dopamine uptake, Mean (±SEM) [2, 3]: 58.5 ± 3.1%
inhibition of radiolabelled dopamine uptake (in words) ([2]; plasma from rats, 10, 30 or 100 mg/kg oral): dose-dependent inhibition of radiolabelled dopamine uptake

From patent US4871774A, “Medical treatment” (The Boots Company PLC, priority 1987, dated 1989)
